Experimental findings from patent publication US9120804B2, “8-substituted 2-amino-[1,2,4] triazolo [1, 5-A] pyrazines as Syk tryrosine kinase inhibitors and GCN2 serin kinase inhibitors” (Merck Patent GmbH, priority 2012, dated 2015) are described below.

Bounds are passed on as bounds.

The assay addresses T1, SYK (Homo sapiens, UniProt P43405).
T1 construct: 2.5 nM SYK, 400 nM Biotin-Aha-Aha-KEDPDYEWPSAKK
The assay is described as follows: SYK flash plate assay (enzyme assay). Format: biochemical. In a few lines:
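Radiometric Flashplate format: biotinylated peptide substrate (400 nM) and 33P-labelled ATP (10 μM) react with 2.5 nM enzyme for 1 hour at 30 °C in Hepes buffer, pH 7.5. After EDTA quench and washing, counts are taken; staurosporine defines non-specific signal, and IC50 values are derived.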
`Cn1cc(-c2nccn3nc(Nc4cc5c(cc4F)C(C)(C)CC(=O)N5)nc23)cn1` [E121, 6-fluoro-4,4-dimethyl-7-[8-(1-methyl-1H-pyrazol-4-yl)-[1,2,4]triazolo[1,5-a]pyrazin-2-ylamino]-3,4-dihydro-1H-quinolin-2-one]: the IC50 was in the range of 300 to 3000 nM.

Turning to `CC1(C)C(=O)Nc2cc(Nc3nc4c(NCCCN)nccn4n3)ccc21` [E122, 6-[8-(3-amino-propylamino)-[1,2,4]triazolo[1,5-a]pyrazin-2-ylamino]-3,3-dimethyl-1,3-dihydro-indol-2-one], the 50% inhibitory concentration (IC50) lay in the range of 300 to 3000 nM.

`CC1(C)C(=O)Nc2cc(Nc3nc4c(OC5CCNC5)nccn4n3)ccc21` (stereo not shown) [E123, 3,3-dimethyl-6-[8-(pyrrolidin-3-yloxy)-[1,2,4]triazolo[1,5-a]pyrazin-2-ylamino]-1,3-dihydro-indol-2-one] came in with an IC50 of 3000 to 50000 nM. For `CC1(C)C(=O)Nc2cc(Nc3nc4c(N5CCc6ccc(C#N)cc6C5)nccn4n3)ccc21` [E124, 2-[2-(3,3-dimethyl-2-oxo-2,3-dihydro-1H-indol-6-ylamino)-[1,2,4]triazolo[1,5-a]pyrazin-8-yl]-1,2,3,4-tetrahydro-isoquinoline-7-carbonitrile] the value was below 100 nM. Turning to `CC(C)(O)c1ccc(Nc2nc3c(N4CCCCCC4)nccn3n2)cc1N` [E125, 2-[2-amino-4-(8-azepan-1-yl-[1,2,4]triazolo[1,5-a]pyrazin-2-ylamino)-phenyl]-propan-2-ol], the IC50 was below 100 nM.

`CC1(C)OC(C(F)(F)F)Nc2cc(Nc3nc4c(N5CCCCCC5)nccn4n3)ccc21` (stereo not shown) [E126, (8-azepan-1-yl-[1,2,4]triazolo[1,5-a]pyrazin-2-yl)-(4,4-dimethyl-2-trifluoromethyl-1,4-dihydro-2H-benzo[d][1,3]oxazin-7-yl)-amine]: the IC50 is below 100 nM. `CC(C)(OC(O)C(F)(F)F)c1ccc(Nc2nc3c(N4CCCCCC4)nccn3n2)cc1N` (stereo not shown) [E127, 1-{1-[2-amino-4-(8-azepan-1-yl-[1,2,4]triazolo[1,5-a]pyrazin-2-ylamino)-phenyl]-1-methyl-ethoxy}-2,2,2-trifluoro-ethanol]: the 50% inhibitory concentration (IC50) was 300 to 3000 nM. In turn, `CC1(C)C(=O)Nc2cc(Nc3nc4c(N5CCc6ccc(C(N)=O)cc6C5)nccn4n3)ccc21` [E128, 2-[2-(3,3-dimethyl-2-oxo-2,3-dihydro-1H-indol-6-ylamino)-[1,2,4]triazolo[1,5-a]pyrazin-8-yl]-1,2,3,4-tetrahydro-isoquinoline-7-carboxylic acid amide] came in with an IC50 below 100 nM. With `CC1(C)C(=O)Nc2cc(Nc3nc4c(NC(=O)c5ccc6c(c5)NCC6)nccn4n3)ccc21` [E129, 2,3-dihydro-1H-indole-6-carboxylic acid [2-(3,3-dimethyl-2-oxo-2,3-dihydro-1H-indol-6-ylamino)-[1,2,4]triazolo[1,5-a]pyrazin-8-yl]-amide], the concentration for half-maximal inhibition (IC50) lay in the range of 300 to 3000 nM. `CC1(C)C(=O)Nc2cc(Nc3nc4c(N5CC6(CCNC6)c6cc(Cl)ccc65)nccn4n3)ccc21` (stereo not shown) [E130, 6-[8-(5-Chloro-spiro[indole-3,3′-pyrrolidin]-1-yl)-[1,2,4]triazolo[1,5-a]pyrazin-2-ylamino]-3,3-dimethyl-1,3-dihydro-indol-2-one] had an IC50 of 300 to 3000 nM.

The molecule `CC1(C)C(=O)Nc2cc(Nc3nc4c(N5CCc6ccc(C(N)=O)cc65)nccn4n3)ccc21` [E131, 1-[2-(3,3-Dimethyl-2-oxo-2,3-dihydro-1H-indol-6-ylamino)-[1,2,4]triazolo[1,5-a]pyrazin-8-yl]-2,3-dihydro-1H-indole-6-carboxylic acid amide] gave a concentration for half-maximal inhibition (IC50) below 100 nM. With `CC1(C)C(=O)Nc2cc(Nc3nc4c(-c5cc6n(n5)CCOC6)nccn4n3)ccc21` [E132, 6-[8-(6,7-Dihydro-4H-pyrazolo[5,1-c][1,4]oxazin-2-yl)-[1,2,4]triazolo[1,5-a]pyrazin-2-ylamino]-3,3-dimethyl-1,3-dihydro-indol-2-one] the figure was 300 to 3000 nM; with `CC1(C)C(=O)Nc2cc(Nc3nc4c(N5CCc6ccc(C#N)cc65)nccn4n3)ccc21` [E134, 1-[2-(3,3-dimethyl-2-oxo-2,3-dihydro-1H-indol-6-ylamino)-[1,2,4]triazolo[1,5-a]pyrazin-8-yl]-2,3-dihydro-1H-indole-6-carbonitrile], below 100 nM. Regarding `CC1(C)C(=O)Nc2cc(Nc3nc4c(NC5CN6CCC5CC6)nccn4n3)ccc21` (stereo not shown) [E135, 6-[8-(1-aza-bicyclo[2.2.2]oct-3-ylamino)-[1,2,4]triazolo[1,5-a]pyrazin-2-ylamino]-3,3-dimethyl-1,3-dihydro-indol-2-one], the IC50 was below 100 nM. `CC1(C)C(=O)Nc2cc(Nc3nc4c(N5CC[C@@]6(O)CCCC[C@H]6C5)nccn4n3)ccc21` [E136, 6-[8-((4aS,8aS)-4a-hydroxy-octahydro-isoquinolin-2-yl)-[1,2,4]triazolo[1,5-a]pyrazin-2-ylamino]-3,3-dimethyl-1,3-dihydro-indol-2-one] showed an IC50 below 100 nM. In turn, `CC1Cc2ccccc2N1c1nccn2nc(Nc3ccc4c(c3)NC(=O)C4(C)C)nc12` (stereo not shown) [E137, 3,3-dimethyl-6-[8-(2-methyl-2,3-dihydro-indol-1-yl)-[1,2,4]triazolo[1,5-a]pyrazin-2-ylamino]-1,3-dihydro-indol-2-one] returned an IC50 below 100 nM. On to `CN(C)CC1(O)CCCN(c2nccn3nc(Nc4ccc5c(c4)NC(=O)C5(C)C)nc23)CC1` (stereo not shown) [E138, 6-[8-(4-dimethylaminomethyl-4-hydroxy-azepan-1-yl)-[1,2,4]triazolo[1,5-a]pyrazin-2-ylamino]-3,3-dimethyl-1,3-dihydro-indol-2-one], for which the concentration for half-maximal inhibition (IC50) lay in the range of 100 to 300 nM. `CN(C)c1ccc(-c2nccn3nc(Nc4ccc5c(c4)NC(=O)C5(C)C)nc23)cn1` [E139, 6-[8-(6-dimethylamino-pyridin-3-yl)-[1,2,4]triazolo[1,5-a]pyrazin-2-ylamino]-3,3-dimethyl-1,3-dihydro-indol-2-one]: the IC50 is below 100 nM. In turn, `CC1(C)C(=O)Nc2cc(Nc3nc4c(-c5cnn(C(C)(C)C)c5)nccn4n3)ccc21` [E140, 6-[8-(1-tert-butyl-1H-pyrazol-4-yl)-[1,2,4]triazolo[1,5-a]pyrazin-2-ylamino]-3,3-dimethyl-1,3-dihydro-indol-2-one] showed an IC50 below 100 nM. For `CC1(C)C(=O)Nc2cc(Nc3nc4c(N5CCC6(CCNCC6)C5=O)nccn4n3)ccc21` [E141, 2-[2-(3,3-dimethyl-2-oxo-2,3-dihydro-1H-indol-6-ylamino)-[1,2,4]triazolo[1,5-a]pyrazin-8-yl]-2,8-diaza-spiro[4.5]decan-1-one] the value was 100 to 300 nM; for `CC1(C)C(=O)Nc2cc(Nc3nc4c(-c5ccc6c(c5)OCCO6)nccn4n3)ccc21` [E142, 6-[8-(2,3-dihydro-benzo[1,4]dioxin-6-yl)-[1,2,4]triazolo[1,5-a]pyrazin-2-ylamino]-3,3-dimethyl-1,3-dihydro-indol-2-one], below 100 nM. For `CN1CCC(C)(C)c2cc(-c3nccn4nc(Nc5ccc6c(c5)NC(=O)C6(C)C)nc34)ccc21` [E143, 3,3-dimethyl-6-[8-(1,4,4-trimethyl-1,2,3,4-tetrahydro-quinolin-6-yl)-[1,2,4]triazolo[1,5-a]pyrazin-2-ylamino]-1,3-dihydro-indol-2-one] the value was 100 to 300 nM; for `CN1CCOc2cc(-c3nccn4nc(Nc5ccc6c(c5)NC(=O)C6(C)C)nc34)cnc21` [E144, 3,3-dimethyl-6-[8-(4-methyl-3,4-dihydro-2H-pyrido[3,2-b][1,4]oxazin-7-yl)-[1,2,4]triazolo[1,5-a]pyrazin-2-ylamino]-1,3-dihydro-indol-2-one], below 100 nM. With `CC1(C)C(=O)Nc2cc(Nc3nc4c(-c5cnn(CCO)c5)nccn4n3)ccc21` [E145, 6-{8-[1-(2-hydroxy-ethyl)-1H-pyrazol-4-yl]-[1,2,4]triazolo[1,5-a]pyrazin-2-ylamino)-3,3-dimethyl-1,3-dihydro-indol-2-one], the IC50 was below 100 nM. The molecule `CC1(C)CCCc2ccc(-c3nccn4nc(Nc5ccc6c(c5)NC(=O)C6(C)C)nc34)cc21` [E146, 6-[8-(8,8-dimethyl-5,6,7,8-tetrahydro-naphthalen-2-yl)-[1,2,4]triazolo[1,5-a]pyrazin-2-ylamino]-3,3-dimethyl-1,3-dihydro-indol-2-one] had an IC50 of 300 to 3000 nM. `CC1(C)C(=O)Nc2cc(Nc3nc4c(-c5cnn(C6CCOCC6)c5)nccn4n3)ccc21` [E148, 3,3-dimethyl-6-{8-[1-(tetrahydro-pyran-4-yl)-1H-pyrazol-4-yl]-[1,2,4]triazolo[1,5-a]pyrazin-2-ylamino}-1,3-dihydro-indol-2-one]: the IC50 is below 100 nM. `CC1(C)C(=O)Nc2cc(Nc3nc4c(-c5cnoc5)nccn4n3)ccc21` [E149, 6-(8-isoxazol-4-yl-[1,2,4]triazolo[1,5-a]pyrazin-2-ylamino)-3,3-dimethyl-1,3-dihydro-indol-2-one] displayed an IC50 below 100 nM. In the case of `CC1(C)C(=O)Nc2cc(Nc3nc4c(-c5cnn(C6CCNCC6)c5)nccn4n3)ccc21` [E150, 3,3-dimethyl-6-[8-(1-piperidin-4-yl-1H-pyrazol-4-yl)-[1,2,4]triazolo[1,5-a]pyrazin-2-ylamino]-1,3-dihydro-indol-2-one], the IC50 is below 100 nM. Turning to `CN(c1cccc(C(N)=O)c1)c1nccn2nc(Nc3ccc4c(c3)NC(=O)C4(C)C)nc12` [E151, 3-{[2-(3,3-dimethyl-2-oxo-2,3-dihydro-1H-indol-6-ylamino)-[1,2,4]triazolo[1,5-a]pyrazin-8-yl]-methyl-amino}-benzamide], the IC50 fell in the range of 300 to 3000 nM. `CC1(C)C(=O)Nc2cc(Nc3nc4c(-c5ccc(N(C(F)(F)F)C(F)(F)F)cc5)nccn4n3)ccc21` [E152, 6-{8-[4-(bis-trifluoromethyl-amino)-phenyl]-[1,2,4]triazolo[1,5-a]pyrazin-2-ylamino}-3,3-dimethyl-1,3-dihydro-indol-2-one] returned an IC50 of 3000 to 50000 nM. For `CC1(C)C(=O)Nc2cc(Nc3nc4c(N5CCC6(CN[C@H](C(F)(F)F)C6)C5)nccn4n3)ccc21` (stereo partly drawn) [E153, 3,3-dimethyl-6-[8-((S)-8-trifluoromethyl-2,7-diaza-spiro[4.4]non-2-yl)-[1,2,4]triazolo[1,5-a]pyrazin-2-ylamino]-1,3-dihydro-indol-2-one] the value was below 100 nM.
